Data taken from patent US20220323455A1, “FUSED HETEROCYCLIC DERIVATIVES AS ANTIVIRAL AGENTS” (priority 2019, published 2022).
Like-named read-outs stand apart in the source and are kept apart here.

Experiments:
[1] = Cytotoxicity in HepG2.117 cells (ATPlite Luminescence Assay); assay type: cell-based; details: human, incubated for 3 days, cell viability, mean value, read-out: TOX-HepG2.117 CC50 (μM, mean value)
Procedure: Cytotoxicity of the compounds was tested using HepG2 or HepG2.117 cells, incubated for 3 days in the presence of compounds. The viability of the cells was assessed using the PERKIN ELMER ATPlite Luminescence Assay System.”

HBV = assay: Anti-HBV activity in HepG2.117 cell line (intracellular HBV DNA, real-time PCR); assay type: cell-based; details: Hepatitis B virus, read-out: HBV-AVE-HepG2.117 EC50 (μM, mean value)
Procedure: The anti HBV activity was measured using the HepG2.117 cell line, a stable, inducibly HBV producing cell line, which replicates HBV in the absence of doxicycline (Tet-off system). The HepG2 cell line is available from ATCC® under number HB-8065. Transfection of the HepG2 cell line can be as described in Sun and Nassal 2006 Journal of Hepatology 45 (2006) 636-645 “Stable HepG2- and Huh7-based human hepatoma cell lines for efficient regulated expression of infectious hepatitis B virus”.
For the antiviral assay, HBV replication was induced, followed by a treatment with serially diluted compound in 96-well plates. After 3 days of treatment, the antiviral activity was determined by quantification of intracellular HBV DNA using real-time PCR and an HBV specific primer set and probe.

[2] = 72 h, HepG2.117 cells, 3 days of treatment, intracellular HBV DNA, mean value

| SMILES | CC50 at 3 days [1] | EC50 (HBV; [2]) | EC50 (HBV; HepG2.117, 72 h) |
| --- | --- | --- | --- |
| C[C@@H]1Cc2nn3c(c2CN1C(=O)c1ccc(Cl)c(Cl)c1)C(F)(F)CN(S(C)(=O)=O)CC3 [Example C4, (3,4-Dichlorophenyl)[(3R)-11,11-difluoro-9-(methanesulfonyl)-3-methyl-1,3,4,7,8,9,10,11-octahydro-2H-pyrido[4′,3′:3,4]pyrazolo[1,5-d][1,4]diazepin-2-yl]methanone] | > 50 µM | 0.052 µM |  |
| C[C@@H]1Cc2nn3c(c2CN1C(=O)c1ccc(Cl)c(Cl)c1)C(F)(F)C(O)CCC3 (stereo partly drawn) [Example C6, (3,4-Dichlorophenyl)[(3R)-11,11-difluoro-10-hydroxy-3-methyl-1,3,4,7,8,9,10,11-octahydro-2H-pyrido[4′,3′:3,4]pyrazolo[1,5-a]azepin-2-yl]methanone] | > 50 µM | 3.28 µM |  |
| C[C@@H]1Cc2nn3c(c2CN1C(=O)c1ccc(Cl)c(Cl)c1)C(F)(F)C(Oc1ccc(C#N)cc1)CCC3 (stereo partly drawn) [Example C7, 4-{[(3R)-2-(3,4-Dichlorobenzoyl)-11,11-difluoro-3-methyl-1,3,4,7,8,9,10,11-octahydro-2H-pyrido[4′,3′:3,4]pyrazolo[1,5-a]azepin-10-yl]oxy}benzonitrile] | > 50 µM |  | 2.38 µM |
| CC(=O)NCC1CCC(F)(F)c2c3c(nn2C1)CCN(C(=O)c1ccc(Cl)c(Cl)c1)C3 (stereo not drawn) [Example C15, N-{[2-(3,4-dichlorobenzoyl)-11,11-difluoro-1,3,4,7,8,9,10,11-octahydro-2H-pyrido[4′,3′:3,4]-pyrazolo[1,5-a]azepin-8-yl]methyl}acetamide] | > 50 µM | 0.221 µM |  |
| COC(=O)NCC1CCC(F)(F)c2c3c(nn2C1)CCN(C(=O)c1ccc(Cl)c(Cl)c1)C3 (stereo not drawn) [Example C16, Methyl {[2-(3,4-dichlorobenzoyl)-11,11-difluoro-1,3,4,7,8,9,10,11-octahydro-2H-pyrido-[4′,3′:3,4]pyrazolo[1,5-a]azepin-8-yl]methyl}carbamate] | 38.2 µM | 0.177 µM |  |
| O=C(c1ccc(Cl)c(Cl)c1)N1CCc2nn3c(c2C1)C(F)(F)CCC(CNC(=O)C(F)(F)F)C3 (stereo not drawn) [Example C17, N-{[2-(3,4-Dichlorobenzoyl)-11,11-difluoro-1,3,4,7,8,9,10,11-octahydro-2H-pyrido[4′,3′:3,4]-pyrazolo[1,5-a]azepin-8-yl]methyl}-2,2,2-trifluoroacetamide] | 20 µM |  | 0.326 µM |
